The text below walks through data of US20260376293A1, “METHODS FOR STUDYING GPR158 PHARMACOLOGY AND IDENTIFICATION OF ITS LIGANDS” (UNIVERSITY OF FLORIDA RESEARCH FOUNDATION, INCORPORATED, priority 2022, published 2026).

In the test the target is T1, GPR158 (Homo sapiens, UniProt Q5T848).
T1 sequence (Q5T848 24-1215): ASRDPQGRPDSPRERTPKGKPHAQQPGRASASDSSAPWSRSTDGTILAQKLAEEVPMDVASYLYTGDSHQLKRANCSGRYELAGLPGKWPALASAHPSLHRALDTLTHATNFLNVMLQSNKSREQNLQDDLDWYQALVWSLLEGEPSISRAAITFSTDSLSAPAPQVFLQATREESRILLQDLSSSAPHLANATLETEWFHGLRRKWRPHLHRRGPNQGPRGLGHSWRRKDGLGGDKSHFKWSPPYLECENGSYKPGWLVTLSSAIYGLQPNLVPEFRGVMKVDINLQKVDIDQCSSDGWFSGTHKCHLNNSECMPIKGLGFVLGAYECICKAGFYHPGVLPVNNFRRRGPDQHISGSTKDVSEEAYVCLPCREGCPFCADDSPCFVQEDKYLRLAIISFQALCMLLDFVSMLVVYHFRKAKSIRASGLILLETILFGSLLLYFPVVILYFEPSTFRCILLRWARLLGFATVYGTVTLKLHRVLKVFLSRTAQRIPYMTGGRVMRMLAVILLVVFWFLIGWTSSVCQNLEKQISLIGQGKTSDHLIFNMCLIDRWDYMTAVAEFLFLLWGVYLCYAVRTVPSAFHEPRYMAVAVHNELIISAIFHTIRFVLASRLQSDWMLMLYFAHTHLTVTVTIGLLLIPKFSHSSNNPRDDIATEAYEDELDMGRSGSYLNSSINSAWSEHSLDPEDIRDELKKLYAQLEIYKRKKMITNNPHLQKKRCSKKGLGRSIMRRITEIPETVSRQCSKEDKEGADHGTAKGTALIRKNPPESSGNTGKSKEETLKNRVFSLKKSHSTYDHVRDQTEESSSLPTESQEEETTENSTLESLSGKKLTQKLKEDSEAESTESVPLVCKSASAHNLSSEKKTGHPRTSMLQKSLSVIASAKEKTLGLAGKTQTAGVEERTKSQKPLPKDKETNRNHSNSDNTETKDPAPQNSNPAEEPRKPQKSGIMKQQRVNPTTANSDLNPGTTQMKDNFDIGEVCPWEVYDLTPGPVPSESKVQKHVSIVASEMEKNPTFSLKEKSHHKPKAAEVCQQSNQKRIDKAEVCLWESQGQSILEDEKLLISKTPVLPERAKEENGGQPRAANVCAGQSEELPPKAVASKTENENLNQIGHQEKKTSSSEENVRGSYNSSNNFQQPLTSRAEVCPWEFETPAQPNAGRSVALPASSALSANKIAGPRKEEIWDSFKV
Description: BRET cAMP assay in U87 glioblastoma cells expressing GPR158. It is filed as cell-based. On the set-up: expressed in transfected cells; host or cells: HEK293FT. As to conditions: glycine 100 μM. From the text: FIGS. 1A-1E Identification of glycine as GPR158 ligand. A) 3D model of the GPR158 cache domain with putative ligand-binding pocket is shown as surface presentation with cartoon representation at the background. B) Schematic of the screening assay design. C) Quantification of cAMP changes mediated by GPR158. BRET signal in response to amino acid application detected in control cells is subtracted from the signal from cells expressing GPR158 and the difference is plotted. Dotted lines denote 2×SD confidence interval. Data shown represent mean±s.e.m. determined from 3 independent experiments performed in triplicate. D) Time course of cAMP change induced with 10 μM of forskolin in glioblastoma cells (U87 MG) in response to glycine (100 μM) application (arrow) in empty cells (control) or cells expressing indicated components. E) Quantification of maximal amplitudes of responses to glycine in panel d. Data shown represent mean±s.e.m. determined from 3 independent experiments performed in triplicate. **p<0.01 (one-way ANOVA).
To study this effect in more detail the inventors analyzed the individual responses to glycine in a kinetic mode.
HEK293FT cells were seeded in a white flat-bottom 96 well plate (Greiner Bio-One) at 50,000 cells per well and transiently transfected using Metafectene Pro with the manufacturer instruction. […] BRET measurements were made in living cells using a microplate reader (PHERAstar FSX; BMG Labtech) equipped with two emission photomultiplier tubes. […]
HEK293FT cells or U87 MG cells (ATCC HTB-14) when indicated were co-transfected with the CAMP sensor Camyel and with untagged receptors (respectively: empty vector, GPR158). BRET ratio was determined by calculating the ratio of the light emitted by RLuc (475 nm with a 30 nm band path width) over the light emitted by the Venus (535 nm with a 30 nm band path width) in order to measure an increase of the signal when cAMP increase. ΔBRET was calculated by subtracting the ctrl cell BRET result from GPR158 expressing cells BRET result in order to get specifically the signal from GPR158 removing all the non-specific signal. […]
(Bioluminescence resonance energy transfer reports proximity on the nanometre scale.)

As to `NCC(=O)O` [glycine], the “cAMP change in cells lacking GPR158” value (U87 cells without GPR158) is reported as “No glycine-induced changes in cAMP”. Moreover, the “cAMP change with co-expressed RGS7/Gβ5” value (U87 cells, GPR158 + RGS7/Gβ5) is recorded as “further potentiated”. For the same compound, the cAMP change result (U87 glioblastoma cells expressing GPR158, forskolin 10 μM) is “resulted in cAMP decrease”.
